According to paper PMC10923054, “Antiplasmodial peptaibols act through membrane directed mechanisms” (Cell Chemical Biology, 2024):
Like-named read-outs stand apart in the source and are kept apart here. Square brackets hold non-standard residues; d marks the D form. Peptide text beside a SMILES is read from it. Leu(ol) = CC(C)C[C@H](N)CO; dIva = CC[C@@](C)(N)C(=O)O; Aib = CC(C)(N)C(=O)O

Tests used:
[1] = tested on: red blood cell (RBC); test: Percent hemolysis determination; type: cell-based, human; conditions: for Hemolytic Potential: Figure 7A summary; as to Hemolytic Potential: key: -: A '–' indicates a negative finding; a single '+' indicates a positive finding; a double '++' indicates a strong positive finding
Method: Hemolysis assay performed as outlined in Duvall et al. with some modifications.[63] Whole blood was first washed and resuspended in PBS to isolate RBCs. Compound was then added in serial dilutions to PBS with 1% hematocrit, with vehicle or 0.01% saponin used as controls. Plates were incubated for 1 h at 37°C then centrifuged for 10 min at 900 x g. Supernatant was then transferred to a clear plate and absorbance was read at 550 nm. Extended incubation with compound (up to 3 days) was performed during assay optimization, with no changes noted in percent hemolysis.

[2] = tested on: HZ NPDG-I-resistant Dd2 clones (pfmdr1 mutants); type: cell-based, P. falciparum; conditions: for pfMDR1 Clone Sensitivity: Figure 7A summary; for Fold Change in IC50 vs the parental line, clone 1B2 / Fold Change in IC50 vs the parental line, clone 1E2 / Fold Change in IC50 vs the parental line, clone 2B3 / Fold Change in IC50 vs the parental line, clone 3A3: Figure S5, 72 h, SYTO 61 flow cytometry; as to pfMDR1 Clone Sensitivity: key: -: A '–' indicates a negative finding; a single '+' indicates a positive finding; a double '++' indicates a strong positive finding
Method: Screening of HZ NPDG-I resistant clones was performed at 1% parasitemia, 0.2% hematocrit with flow cytometry in V-shaped 96-well plates. Briefly, compounds were subjected to a 3-fold serial dilution with the highest concentration set at 4 μM or 8 μM. Eleven dilution points were included in addition to no-drug controls. Three technical replicates were set up for each compound at each dilution point. The Dd2-B2 parent line, or the clonal line 1B2, 2B3, 3A3, or 1E2 were added at 0.4% hematocrit and 1% parasitemia to the diluted compounds at a 1:1 ratio. The plate was incubated at 37°C for 72 h in a chamber filled with a hypoxic gas mixture (3% oxygen, 5% carbon dioxide, and 92% nitrogen). After incubation, a blood pellet was formed at the bottom of each well of the 96-well plate. Supernatant was removed without disturbing the pellet, and 20 μl of SYTO 61(1:10,000 dilution; Thermo Fisher Scientific, Cat No. S11343) in PBS was added to each well and incubated for 15 mins at room temperature. The cells in each well were then diluted with 180 μl of PBS and subjected to flow cytometry for parasitemia determination using the HTS (High-Throughput Sampler) of BD FACSCanto II (BD Biosciences, NJ). Flow cytometry data was analyzed using FlowJo Version 10.4.0. Dose response curves were generated and IC50 values obtained with GraphPad Prism Version 9.1.1.
A clone of the Dd2 strain (Dd2-B2) of P. falciparum was used for in vitro evolution of resistance against harzianin NPDG I. Three flasks of 1.2 x 10^8 parasites were continuously exposed to a stepwise-increasing concentration of the compound over ∼3 months starting from 20 nM up to a final concentration of 100 nM. Once a stable rightward shift in 72 h IC50 was observed, cultures were subjected to limiting dilution to obtained harzianin-resistant clones. Each clone was expanded, phenotyped to confirm resistance, and submitted for whole genome sequencing. An untreated flask of Dd2-B2 parasites was maintained in parallel throughout the course of in vitro selection as a control.

[3] = tested on: digestive vacuole of functionally isolated 3D7 trophozoites; test: FITC-dextran measurements of DV pH and membrane integrity; as to DV Alkylization: key: -: A '–' indicates a negative finding; a single '+' indicates a positive finding; a double '++' indicates a strong positive finding; type: cell-based, P. falciparum; conditions: for DV Alkylization: Figure 7A summary; for localization of membrane impermeable dye FITC-dextran (DV membrane leakage): microscopic analysis after 2 h
Method: Preloading of 3D7 parasites with FITC-dextran was done as outlined in Saliba et al.[68] In summary, 2.25 mL of pre-warmed lysis buffer (5 mM HEPES, 11 mM glucose, 2 mM MgCl2, 2 mM ATP, and 110 μM FITC-dextran, pH 7.4) was added to 1 mL of packed RBCs and incubated at 30°C for 10 min. After, 2.25 mL of resealing buffer (280 mM NaCl, 40 mM KCl, 11 mM glucose, and 1 mM HEPES, pH 7.4) was added and cells were pelleted at 1,200 x g for 5 min then washed 3 x in RPMI. FITC-dextran loaded RBCs were then resuspended with 1 mL of synchronous trophozoite stage parasites (10–20%) parasitemia, at 4% hematocrit. Cultures were maintained in 50 mL for a minimum of 2 life cycles, until parasitemia reached >15%.
For assay use, trophozoite stage parasites were functionally isolated as described by van Schalkwyk et al. and Kirk et al. with some modifications.[69]^,[70] Parasites were resuspended in warm media with 0.05% saponin then centrifuged immediately at 2,060 x g for 10 min. Cells were washed in RPMI media 3 x then resuspended in HEPES buffered saline (100 mM KCl, 30 mM NaCl, 2 mM MgCl2, and 5 mM HEPES, pH 7.3) at 5 x 10^6 cells/mL. […] Samples were collected at 0.5, 1, and 2 h for flow cytometry using a CytoFLEX S (Beckman Coulter, Brea, CA), excitation 488 nm, emissions 530 and 585 nm. Gating was performed in FlowJo Version 10 using FITC-dextran loaded and unloaded controls. The ratio (Rgy) of the fluorescent intensity values was then graphed using Graph Pad Prism Version 9. For microscopic analysis, samples were collected after 2 h of treatment and imaged on a Leica TCS SP5 II confocal microscope (Leica Microsystems, Wetzlar, DE.) at excitation 488, emission 520 nm with a 30 nm bandpass filter, then processed with LAS-X software. Significance determined using a one-way ANOVA multiple comparisons test in GraphPad Prism Version 9.0.

[4] = tested on: asynchronous Dd2 culture; test: Killing profile (flow cytometry, SYBR Green I / Mitotracker Deep Red FM); type: cell-based, P. falciparum; conditions: for Killing Profile: 10 x EC50
Method: Killing profile analyses were performed as previously described,[64] in asynchronous Dd2 culture, starting at approximately 1% parasitemia, 4% hematocrit. Compound was added to culture in majority ring stage and incubated for 12, 24, or 48 h prior to washing and sample collection. Media were then changed normally every 24 h for 6 days. Samples taken each day were used for Giemsa thin smears, and flow cytometric analysis to monitor parasitemia and mitotracker retention. For staining, samples were incubated in a solution of 1:1000 SYBR Green I and 0.6 μM Mitotracker Deep red FM for 30 min then read on a CytoFLEX S (Beckman Coulter, Brea, CA), with 100,000 events recorded per sample. Flow cytometry was gated in FlowJo Version 10 using DHA, vehicle, no Mitotracker, and uninfected RBC controls. Assay workflow outline was created using BioRender.

[5] = 5 x EC50, isolated trophozoites
[6] = 10 x EC50, monitored for 6 days, 3 biological replicates

## CC[C@H](C)[C@H](NC(=O)[C@H](CC(C)C)NC(=O)[C@H](CCC(N)=O)NC(=O)[C@@](C)(CC)NC(C)=O)C(=O)NC(C)(C)C(=O)N1CCC[C@H]1C(=O)N[C@](C)(CC)C(=O)N[C@@H](CC(C)C)C(=O)NC(C)(C)C(=O)N1CCC[C@H]1C(=O)N[C@H](CO)CC(C)C [HZ NPDG-I, harzianin NPDG I] (Ac-[dIva]QLI[Aib]P[dIva]L[Aib]P[Leu(ol)])
[1]
  Hemolytic Potential: -
[2]
  pfMDR1 Clone Sensitivity: ++
  Fold Change in IC50 vs the parental line, clone 1B2: 8.70
  Fold Change in IC50 vs the parental line, clone 1E2: 5.70
  Fold Change in IC50 vs the parental line, clone 2B3: 7.00
  Fold Change in IC50 vs the parental line, clone 3A3: 4.50
[2]; flask 1, IC50 vs Dd2-B2
  fold change, clone 1D5: 4.65
  fold change, clone 1H3: 7.57
  fold change, clone Harzianin-Dd2-1B2: 8.64
  fold change, clone Harzianin-Dd2-1C12: 9.71
  fold change, clone Harzianin-Dd2-1E2: 5.63
[2]; flask 1, read-out: IC50, clone 1D5
  IC50: 0.249 nM
[2]; flask 1, read-out: IC50, clone 1H3
  IC50: 0.406 nM
[2]; flask 1, read-out: IC50, clone Harzianin-Dd2-1B2
  IC50: 0.463 nM
[2]; flask 1, read-out: IC50, clone Harzianin-Dd2-1C12
  IC50: 0.52 nM
[2]; flask 1, read-out: IC50, clone Harzianin-Dd2-1E2
  IC50: 0.302 nM
[2]; flask 2, IC50 vs Dd2-B2
  fold change, clone 2B7: 3.87
  fold change, clone 2E9: 6.77
  fold change, clone Harzianin-Dd2-2B3: 6.98
  fold change, clone Harzianin-Dd2-2E8: 5.31
  fold change, clone Harzianin-Dd2-2G7: 4.60
[2]; flask 2, read-out: IC50, clone 2B7
  IC50: 0.0859 nM
[2]; flask 2, read-out: IC50, clone 2E9
  IC50: 0.15 nM
[2]; flask 2, read-out: IC50, clone Harzianin-Dd2-2B3
  IC50: 0.155 nM
[2]; flask 2, read-out: IC50, clone Harzianin-Dd2-2E8
  IC50: 0.118 nM
[2]; flask 2, read-out: IC50, clone Harzianin-Dd2-2G7
  IC50: 0.102 nM
[2]; flask 3, IC50 vs DD2-B2
  fold change, clone 3A5: 4.30
  fold change, clone 3B7: 4.05
  fold change, clone 3G7: 3.98
  fold change, clone Harzianin-Dd2-3A3: 4.51
  fold change, clone Harzianin-Dd2-3C6: 4.68
  fold change, clone Harzianin-Dd2-3G11: 3.93
[2]; flask 3, read-out: IC50, clone 3A5
  IC50: 0.188 nM
[2]; flask 3, read-out: IC50, clone 3B7
  IC50: 0.177 nM
[2]; flask 3, read-out: IC50, clone 3G7
  IC50: 0.174 nM
[2]; flask 3, read-out: IC50, clone Harzianin-Dd2-3A3
  IC50: 0.197 nM
[2]; flask 3, read-out: IC50, clone Harzianin-Dd2-3C6
  IC50: 0.204 nM
[2]; flask 3, read-out: IC50, clone Harzianin-Dd2-3G11
  IC50: 0.172 nM
[3]; [5]
  pH dependent fluorescence ratio (FI585/FI530), DV pH, after 1 h: moderate increase
  pH dependent fluorescence ratio (FI585/FI530), DV pH, after 2 h: significant (p = 0.0015) increase
[3]
  DV Alkylization: +
[3]; 5 x EC50
  localization of membrane impermeable dye FITC-dextran (DV membrane leakage): no longer showed full colocalization of the dye within the DV
[4]
  Killing Profile: Rapid
[4]; [6]
  parasitemia after 12 h incubation and washout: inhibit parasitemia for all 6 days

## CC[C@H](C)[C@H](NC(=O)[C@H](C)NC(=O)[C@@H]1CCCN1C(=O)C(C)(C)NC(=O)[C@H](CC(C)C)NC(=O)[C@H](CCC(N)=O)NC(=O)[C@@](C)(CC)NC(C)=O)C(=O)NC(C)(C)C(=O)N1CCC[C@H]1C(=O)N[C@](C)(CC)C(=O)N[C@@H](CC(C)C)C(=O)NC(C)(C)C(=O)N1CCC[C@H]1C(=O)N[C@H](CO)CC(C)C [HZ NPDG-H, harzianin NPDG H] (Ac-[dIva]QL[Aib]PAI[Aib]P[dIva]L[Aib]P[Leu(ol)])
[1]
  Hemolytic Potential: -
[2]; 4 resistant clones screened
  EC50 increase in HZ NPDG-I resistant clones vs parental line: 1.4 fold
[2]
  pfMDR1 Clone Sensitivity: -
  Fold Change in IC50 vs the parental line, clone 1B2: 0.62
  Fold Change in IC50 vs the parental line, clone 1E2: 0.98
  Fold Change in IC50 vs the parental line, clone 2B3: 1.14
  Fold Change in IC50 vs the parental line, clone 3A3: 1.40
[3]; [5]
  pH dependent fluorescence ratio (FI585/FI530), DV pH, 0.5, 1 or 2 h: No significant (p > 0.05) change
[3]
  DV Alkylization: -
[3]; 5 x EC50
  localization of membrane impermeable dye FITC-dextran (DV membrane leakage): not seen
[4]
  Killing Profile: cytostatic
[4]; [6]
  parasitemia after 12 h incubation and washout: recovered by day 3
  parasitemia after 48 h incubation and washout: increase in parasitemia at day 5
[4]; listed as Harzianin NPDG H
  Killing Profile: Slow

## CC[C@@](C)(NC(=O)C(C)(C)NC(=O)[C@H](CC(C)C)NC(=O)[C@@H]1CCCN1C(=O)C(C)(C)NC(=O)[C@H](CC(C)C)NC(=O)CNC(=O)C(C)(C)NC(=O)[C@@H](NC(=O)C(C)(C)NC(=O)[C@H](CCC(N)=O)NC(=O)C(C)(C)NC(=O)C(C)(C)NC(=O)[C@H](C)NC(=O)CNC(=O)C(C)(C)NC(C)=O)C(C)C)C(=O)N[C@@H](CCC(N)=O)C(=O)N[C@H](CO)CC(C)C [TC HA-II, trichorzin HA II] (Ac-[Aib]GA[Aib][Aib]Q[Aib]V[Aib]GL[Aib]PL[Aib][dIva]Q[Leu(ol)])
[1]; 25 μM, RBCs in PBS, 1% hematocrit, 1 h, 37°C, absorbance 550 nm, 0.01% saponin control, biological triplicate
  hemolysis at 25 μM: 53%
[1]
  Hemolytic Potential: +
[2]
  pfMDR1 Clone Sensitivity: -
[3]
  DV Alkylization: ++
[3]; 5 x EC50
  localization of membrane impermeable dye FITC-dextran (DV membrane leakage): no longer showed full colocalization of the dye within the DV
[4]
  Killing Profile: Rapid
[4]; [6]
  parasitemia after 12 h incubation and washout: inhibit parasitemia for all 6 days
